Measured values reported in PubChem BioAssay (NCI).
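How tested: cells in 96-well plates exposed to compound for 48 hours at five concentrations. Definition used: TGI = concentration required for complete inhibition of growth.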

Assays:
Experiment in all cases: NCI tumour cell line growth inhibition, 48 h
LXFL 529 NSCLC = test system: LXFL 529 NSCLC
K-562 leukemia = test system: K-562 leukemia
SK-MEL-28 melanoma = test system: SK-MEL-28 melanoma
SK-OV-3 ovarian = test system: SK-OV-3 ovarian
OVCAR-8 ovarian = test system: OVCAR-8 ovarian
786-0 renal = test system: 786-0 renal
MOLT-4 leukemia = test system: MOLT-4 leukemia
UO-31 renal = test system: UO-31 renal
SN12C renal = test system: SN12C renal
OVCAR-4 ovarian = test system: OVCAR-4 ovarian
M14 melanoma = test system: M14 melanoma
SNB-78 CNS = test system: SNB-78 CNS
U251 CNS = test system: U251 CNS
RXF 393 renal = test system: RXF 393 renal
SW-620 colon = test system: SW-620 colon
T-47D breast = test system: T-47D breast
HOP-62 NSCLC = test system: HOP-62 NSCLC
NCI-H460 lung = test system: NCI-H460 lung
SF-295 CNS = test system: SF-295 CNS
A498 renal = test system: A498 renal
RPMI-8226 leukemia = test system: RPMI-8226 leukemia
BT-549 breast = test system: BT-549 breast
DU-145 prostate = test system: DU-145 prostate
DLD-1 colon = test system: DLD-1 colon
XF 498 CNS = test system: XF 498 CNS
EKVX NSCLC = test system: EKVX NSCLC
LOX IMVI melanoma = test system: LOX IMVI melanoma
CCRF-CEM leukemia = test system: CCRF-CEM leukemia
SF-268 CNS = test system: SF-268 CNS
KM12 colon = test system: KM12 colon
MCF7 breast = test system: MCF7 breast
HCC-2998 colon = test system: HCC-2998 colon
HS 578T breast = test system: HS 578T breast
UACC-257 melanoma = test system: UACC-257 melanoma
MDA-MB-435 = test system: MDA-MB-435
SNB-19 CNS = test system: SNB-19 CNS
NCI-H23 lung = test system: NCI-H23 lung
SK-MEL-2 melanoma = test system: SK-MEL-2 melanoma
HCT-116 colon = test system: HCT-116 colon
HT29 colon = test system: HT29 colon
OVCAR-5 ovarian = test system: OVCAR-5 ovarian
TK-10 renal = test system: TK-10 renal
HL-60(TB) leukemia = test system: HL-60(TB) leukemia
SR leukemia = test system: SR leukemia
A549 NSCLC = test system: A549 NSCLC
HCT-15 colon = test system: HCT-15 colon
MDA-N = test system: MDA-N
UACC-62 melanoma = test system: UACC-62 melanoma
MALME-3M melanoma = test system: MALME-3M melanoma
DMS 114 small cell lung = test system: DMS 114 small cell lung
CAKI-1 renal = test system: CAKI-1 renal
SK-MEL-5 melanoma = test system: SK-MEL-5 melanoma
OVCAR-3 ovarian = test system: OVCAR-3 ovarian
SF-539 CNS = test system: SF-539 CNS
PC-3 prostate = test system: PC-3 prostate
M19-MEL melanoma = test system: M19-MEL melanoma
NCI-H226 lung = test system: NCI-H226 lung
ACHN renal = test system: ACHN renal
COLO 205 colon = test system: COLO 205 colon
KM20L2 colon = test system: KM20L2 colon
MDA-MB-231 breast = test system: MDA-MB-231 breast
SNB-75 CNS = test system: SNB-75 CNS
HOP-18 NSCLC = test system: HOP-18 NSCLC
NCI-H522 lung = test system: NCI-H522 lung
IGROV1 ovarian = test system: IGROV1 ovarian
HOP-92 NSCLC = test system: HOP-92 NSCLC
NCI/ADR-RES ovarian = test system: NCI/ADR-RES ovarian
DMS 273 small cell lung = test system: DMS 273 small cell lung

In the case of `CCNCCCCNCCCCNCCCCNCCCCNCC`, the TGI (LXFL 529 NSCLC) was over 100 µM, the TGI (K-562 leukemia) was over 100 µM and the TGI (SK-MEL-28 melanoma) was 52.6 µM. For the same compound, the TGI (SK-OV-3 ovarian) was over 100 µM, the TGI (OVCAR-8 ovarian) was over 100 µM and the TGI (786-0 renal) was 98.6 µM. It also gave a TGI (MOLT-4 leukemia) of over 100 µM, a TGI (UO-31 renal) of over 100 µM and a TGI (SN12C renal) of over 100 µM. It also gave a TGI (OVCAR-4 ovarian) of over 100 µM, a TGI (M14 melanoma) of over 100 µM and a TGI (SNB-78 CNS) of over 100 µM. For the same compound, the TGI (U251 CNS) was over 100 µM, the TGI (RXF 393 renal) was over 52.6 µM and the TGI (SW-620 colon) was over 100 µM. It also gave a TGI (T-47D breast) of over 100 µM, a TGI (HOP-62 NSCLC) of over 100 µM and a TGI (NCI-H460 lung) of over 100 µM. It also gave a TGI (SF-295 CNS) of over 100 µM, a TGI (A498 renal) of over 100 µM and a TGI (RPMI-8226 leukemia) of over 100 µM. It also gave a TGI (BT-549 breast) of over 100 µM, a TGI (DU-145 prostate) of over 100 µM and a TGI (DLD-1 colon) of over 100 µM. The TGI (XF 498 CNS) was over 100 µM, the TGI (EKVX NSCLC) was over 100 µM and the TGI (LOX IMVI melanoma) was over 100 µM. For the same compound, the TGI (CCRF-CEM leukemia) was over 100 µM, the TGI (SF-268 CNS) was over 77.7 µM and the TGI (KM12 colon) was over 100 µM. It also gave a TGI (MCF7 breast) of over 100 µM, a TGI (HCC-2998 colon) of over 100 µM and a TGI (HS 578T breast) of 26.3 µM. For the same compound, the TGI (UACC-257 melanoma) was 81.3 µM, the TGI (MDA-MB-435) was 38.6 µM and the TGI (SNB-19 CNS) was over 100 µM. It also gave a TGI (NCI-H23 lung) of over 100 µM, a TGI (SK-MEL-2 melanoma) of over 100 µM and a TGI (HCT-116 colon) of over 100 µM. For the same compound, the TGI (HT29 colon) was over 100 µM, the TGI (OVCAR-5 ovarian) was over 100 µM and the TGI (TK-10 renal) was over 56.2 µM. It also gave a TGI (HL-60(TB) leukemia) of over 100 µM, a TGI (SR leukemia) of over 100 µM and a TGI (A549 NSCLC) of over 100 µM. For the same compound, the TGI (HCT-15 colon) was over 100 µM, the TGI (MDA-N) was 61.8 µM and the TGI (UACC-62 melanoma) was 43.8 µM. It also gave a TGI (MALME-3M melanoma) of 31.5 µM, a TGI (DMS 114 small cell lung) of over 100 µM and a TGI (CAKI-1 renal) of over 73.1 µM. The TGI (SK-MEL-5 melanoma) was over 100 µM, the TGI (OVCAR-3 ovarian) was over 100 µM and the TGI (SF-539 CNS) was over 100 µM. For the same compound, the TGI (PC-3 prostate) was over 100 µM, the TGI (M19-MEL melanoma) was over 100 µM and the TGI (NCI-H226 lung) was over 100 µM. The TGI (ACHN renal) was over 100 µM, the TGI (COLO 205 colon) was over 100 µM and the TGI (KM20L2 colon) was over 100 µM. For the same compound, the TGI (MDA-MB-231 breast) was over 100 µM, the TGI (SNB-75 CNS) was 78.4 µM and the TGI (HOP-18 NSCLC) was over 100 µM. It also gave a TGI (NCI-H522 lung) of over 100 µM, a TGI (IGROV1 ovarian) of over 100 µM and a TGI (HOP-92 NSCLC) of over 100 µM. The TGI (NCI/ADR-RES ovarian) was over 100 µM and the TGI (DMS 273 small cell lung) was over 100 µM.
